Assay results reported in paper PMC10818416, “Design, Synthesis, and Evaluation of New Hybrid Derivatives of 5,6-Dihydro-4H-pyrrolo[3,2,1-ij]quinolin-2(1H)-one as Potential Dual Inhibitors of Blood Coagulation Factors Xa and XIa” (Molecules, 2024).
Read-outs that look alike come from different tables or passages of the source.

Assays:
Test in all cases: chromogenic substrate hydrolysis, […] nm
Format in all cases: biochemical
[1] = target: T1, factor Xa (FXa) (Homo sapiens, UniProt P00742)
T1 construct: gene F10

[2] = target: T2, factor XIa (FXIa) (Homo sapiens, UniProt P03951)
T2 construct: gene F11

[3] = target: T2, factor XIa (FXIa); conditions: […] enzyme, […] S2366, pH […], up to […] DMSO
[4] = target: T1, factor Xa (FXa); conditions: […] enzyme, […] S2765, pH […], up to […] DMSO
[5] = target: T3, thrombin (Homo sapiens, UniProt P00734); conditions: […] enzyme, […] Tos-Gly-Pro-Arg-pNA, pH […], up to […] DMSO
T3 construct: gene F2

T2 sequence (P03951 19-387): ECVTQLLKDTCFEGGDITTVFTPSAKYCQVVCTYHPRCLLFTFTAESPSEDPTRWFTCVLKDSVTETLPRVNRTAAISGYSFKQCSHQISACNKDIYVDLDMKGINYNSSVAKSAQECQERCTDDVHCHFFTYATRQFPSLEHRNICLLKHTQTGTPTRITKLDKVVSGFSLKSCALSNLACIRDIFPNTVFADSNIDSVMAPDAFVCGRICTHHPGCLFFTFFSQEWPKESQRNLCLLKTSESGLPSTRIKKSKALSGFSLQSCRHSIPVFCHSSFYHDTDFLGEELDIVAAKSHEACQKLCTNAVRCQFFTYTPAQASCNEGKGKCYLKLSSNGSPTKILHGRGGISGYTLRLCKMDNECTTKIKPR
T2 sequence (P03951 388-625): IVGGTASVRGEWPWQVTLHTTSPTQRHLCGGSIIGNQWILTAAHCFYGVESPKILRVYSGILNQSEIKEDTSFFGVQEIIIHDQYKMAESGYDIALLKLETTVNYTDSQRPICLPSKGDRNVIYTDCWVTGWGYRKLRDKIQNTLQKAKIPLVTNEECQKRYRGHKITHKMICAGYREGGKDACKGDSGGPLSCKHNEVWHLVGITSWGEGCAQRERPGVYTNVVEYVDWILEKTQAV
T1 sequence (P00742 41-179): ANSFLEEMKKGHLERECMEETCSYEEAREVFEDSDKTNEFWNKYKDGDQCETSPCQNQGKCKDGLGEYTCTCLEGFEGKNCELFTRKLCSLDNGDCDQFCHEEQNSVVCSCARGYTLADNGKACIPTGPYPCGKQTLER
T1 sequence (P00742 235-488): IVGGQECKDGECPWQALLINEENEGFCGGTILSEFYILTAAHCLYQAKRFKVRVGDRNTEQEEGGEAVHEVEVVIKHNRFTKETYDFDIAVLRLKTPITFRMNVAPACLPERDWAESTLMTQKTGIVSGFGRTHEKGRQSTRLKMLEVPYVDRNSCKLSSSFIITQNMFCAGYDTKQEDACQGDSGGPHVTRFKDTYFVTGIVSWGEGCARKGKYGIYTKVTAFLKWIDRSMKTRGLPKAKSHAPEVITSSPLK

Row | Structure (SMILES) | IC50 [1] [µM] | IC50 [2] [µM] | other results
1 | COC(=O)/C=C1\SC(N/N=C2\C(=O)N3c4c(cc(C)c(C)c42)C(C)CC3(C)C)=NC1=O (stereo not shown) [3f, Methyl (Z)-2-(4-oxo-2-(2-((Z)-4,4,6,8,9-pentamethyl-2-oxo-5,6-dihydro-4H-pyrrolo[3,2,1-ij]quinolin-1(2H)-ylidene)hydrazineyl)thiazol-5(4H)-ylidene)acetate] | 4.02 ± 0.6 | 7.97 ± 0.63 | 
2 | COC(=O)/C=C1\SC(N/N=C2\C(=O)N3c4c2cc(Cl)cc4C(C)(c2ccc(Cl)cc2)CC3(C)C)=NC1=O (stereo not shown) [3k, Methyl (Z)-2-(2-(2-((Z)-8-chloro-6-(4-chlorophenyl)-4,4,6-trimethyl-2-oxo-5,6-dihydro-4H-pyrrolo[3,2,1-ij]quinolin-1(2H)-ylidene)hydrazineyl)-4-oxothiazol-5(4H)-ylidene)acetate] | 1.17 ± 0.26 | 4.59 ± 0.54 | 
3 | COC(=O)C=C1SC(NN=C2C(=O)N3c4c2cc(C)cc4C(C)(c2ccc(Cl)cc2)CC3(C)C)=NC1=O (mixture of isomers) [3j, Methyl 2-(2-(2-(6-(4-chlorophenyl)-4,4,6,8-tetramethyl-2-oxo-5,6-dihydro-4H-pyrrolo[3,2,1-ij]quinolin-1(2H)-ylidene)hydrazineyl)-4-oxothiazol-5(4H)-ylidene)acetate] |  |  | Percent Inhibition at 30 μM / XIa [3]: 83%
4 | COC(=O)/C=C1\SC(N/N=C2\C(=O)N3c4c2cccc4C(C)(c2ccc(Cl)cc2)CC3(C)C)=NC1=O (stereo not shown) [3i, Methyl (Z)-2-(2-(2-((Z)-6-(4-chlorophenyl)-4,4,6-trimethyl-2-oxo-5,6-dihydro-4H-pyrrolo[3,2,1-ij]quinolin-1(2H)-ylidene)hydrazineyl)-4-oxothiazol-5(4H)-ylidene)acetate] |  |  | Percent Inhibition at 30 μM / Xa [4]: 87%
5 | COC(=O)/C=C1\SC(N/N=C2\C(=O)N3c4c2cc(Br)cc4C(C)CC3(C)C)=NC1=O (stereo not shown) [3d, Methyl (Z)-2-(2-(2-((Z)-8-bromo-4,4,6-trimethyl-2-oxo-5,6-dihydro-4H-pyrrolo[3,2,1-ij]quinolin-1(2H)-ylidene)hydrazineyl)-4-oxothiazol-5(4H)-ylidene)acetate] |  |  | Percent Inhibition at 30 μM / XIa [3]: 96%
6 | COC(=O)/C=C1\SC(N/N=C2\C(=O)N3c4c2cc(Br)cc4C(C)(c2ccc(Cl)cc2)CC3(C)C)=NC1=O (stereo not shown) [3l, Methyl (Z)-2-(2-(2-((Z)-8-bromo-6-(4-chlorophenyl)-4,4,6-trimethyl-2-oxo-5,6-dihydro-4H-pyrrolo[3,2,1-ij]quinolin-1(2H)-ylidene)hydrazineyl)-4-oxothiazol-5(4H)-ylidene)acetate] | 1.74 ± 0.21 | 3.61 ± 1.7 | 
7 | COC(=O)/C=C1\SC(N/N=C2\C(=O)N3c4c2cc(OC)cc4C(C)CC3(C)C)=NC1=O (stereo not shown) [3b, Methyl (Z)-2-(2-(2-((Z)-8-methoxy-4,4,6-trimethyl-2-oxo-5,6-dihydro-4H-pyrrolo[3,2,1-ij]quinolin-1(2H)-ylidene)hydrazineyl)-4-oxothiazol-5(4H)-ylidene)acetate] | 5.76 ± 1.08 | 8.1 ± 0.2 | 
8 | COC(=O)C=C1SC(NN=C2C(=O)N3c4c2cc(I)cc4C(C)CC3(C)C)=NC1=O (mixture of isomers) [3e, Methyl 2-(2-(2-(8-iodo-4,4,6-trimethyl-2-oxo-5,6-dihydro-4H-pyrrolo[3,2,1-ij]quinolin-1(2H)-ylidene)hydrazineyl)-4-oxothiazol-5(4H)-ylidene)acetate] |  |  | IC50 ([1]; […] enzyme, […] S2765, pH […], up to […] DMSO): 4.23 ± 0.31 µM; IC50 ([2]; […] enzyme, […] S2366, pH […], up to […] DMSO): 8.03 ± 0.68 µM; Percent Inhibition of Thrombin at 30 μM [5]: 96%
9 | COC(=O)/C=C1\SC(N/N=C2\C(=O)N3c4c2cc(Br)cc4C(C)(c2ccccc2)CC3(C)C)=NC1=O (stereo not shown) [3p, Methyl (Z)-2-(2-(2-((Z)-8-bromo-4,4,6-trimethyl-2-oxo-6-phenyl-5,6-dihydro-4H-pyrrolo[3,2,1-ij]quinolin-1(2H)-ylidene)hydrazineyl)-4-oxothiazol-5(4H)-ylidene)acetate] | 1.83 ± 0.05 | 3.87 ± 0.33 | 

More lines, main results first:

Row | IC50 [1] [µM] | IC50 [2] [µM] | Structure (SMILES) | other results
10 | 1.86 ± 0.07 | 11.5 ± 0.98 | COC(=O)/C=C1\SC(N/N=C2\C(=O)N3c4c2cccc4C(C)(c2ccccc2)CC3(C)C)=NC1=O (stereo not shown) [3n, Methyl (Z)-2-(4-oxo-2-(2-((Z)-4,4,6-trimethyl-2-oxo-6-phenyl-5,6-dihydro-4H-pyrrolo[3,2,1-ij]quinolin-1(2H)-ylidene)hydrazineyl)thiazol-5(4H)-ylidene)acetate] | 
11 | 1.34 ± 0.16 | 7.21 ± 0.22 | COC(=O)/C=C1\SC(N/N=C2\C(=O)N3c4c2cc(Cl)cc4C(C)(c2ccccc2)CC3(C)C)=NC1=O (stereo not shown) [3o, Methyl (Z)-2-(2-(2-((Z)-8-chloro-4,4,6-trimethyl-2-oxo-6-phenyl-5,6-dihydro-4H-pyrrolo[3,2,1-ij]quinolin-1(2H)-ylidene)hydrazineyl)-4-oxothiazol-5(4H)-ylidene)acetate] | 
12 | 2.84 ± 0.04 | 12.2 ± 0.2 | COC(=O)/C=C1\SC(N/N=C2\C(=O)N3c4c2cc(Cl)cc4C(C)CC3(C)C)=NC1=O (stereo not shown) [3c, Methyl (Z)-2-(2-(2-((Z)-8-chloro-4,4,6-trimethyl-2-oxo-5,6-dihydro-4H-pyrrolo[3,2,1-ij]quinolin-1(2H)-ylidene)hydrazineyl)-4-oxothiazol-5(4H)-ylidene)acetate] | 
